What was measured:
[1] = system: β-galactosidase in tumor sections; assay: IHC analysis of β-galactosidase in intraliver tumors after i.v. dosing of formulated siRNA; type: in vivo, Scid female mice; parameters: key to β-galactosidase IHC staining score, column 1 / β-galactosidase IHC staining score, column 2 / β-galactosidase IHC staining score, column 3 / β-galactosidase IHC staining score, column 4 / β-galactosidase IHC staining score, column 5 / β-galactosidase IHC staining score, column 6: −: there was no staining, a small area of weak staining, or disperse strong single cell staining; +/−: there was 5% of the section with weak staining or one patch of strong staining; +: there was 15% of the section with strong staining; ++: there was ˜50% of the section with strong straining; +++: there was 80% of the section with strong straining; ++++: the whole section had strong staining
Description: The animal studies were carried out in accordance with internal Institutional Animal Care and Use Committee (IACUC) guidelines at Abbott Laboratories. Scid female mice at 6 to 8 weeks of age were obtained from Charles River Laboratory and used for intraliver tumor models. Mouse livers were exposed by vertical incision on mouse abdomens and the tumor cells were directly injected into the livers. The incision was closed by suture and wound clips. All cell lines used for creating xenograft tumors were subjected to the IMPACT profile I test (18 agents) at the University of Missouri Research Animal Diagnostic and Investigative Laboratory, and all cell lines were found negative for the 18 infectious agents tested. Tumor cells were suspended in a 1:1 mixture of S-MEM (Invitrogen, Carlsbad, Calif.) and matrigel (BD Bioscience, San Jose, Calif.) and inoculated at 1×10E6 cells per animal.
Treatments were started 3˜4 weeks after tumor inoculation. Formulated or unformulated siRNAs were administrated via tail vein (i.v) injection.
IHC was carried out as previously described [Li, L., et al., Evaluating hypoxia-inducible factor-1alpha as a cancer therapeutic target via inducible RNA interference in vivo. Cancer Res, 2005. 65(16): p. 7249-58]. Briefly, tumors were excised, cut into pieces of less than 3 mm in thickness and immediately fixed in buffered formalin solution with neutral pH (Sigma, St. Louis, Mo.). The formalin-fixed and paraffin-embedded tumor sections were then used for staining The mouse anti-β-galactosidase mAb (Promega, Madison, Wis.) was used to detect β-galactosidase in tumor sections. DAB (3,3′-diaminobenzidine) was used as the chromogen. IHC images were acquired using the Nikon TE2000 inverted microscope. The β-galactosidase staining was evaluated by 2 people independently based on the scoring system listed below. The average of the score was calculated for each tumor.
−, there was no staining, a small area of weak staining, or disperse strong single cell staining +/−, there was 5% of the section with weak staining or one patch of strong staining +, there was 15% of the section with strong staining ++, there was ˜50% of the section with strong straining +++, there was 80% of the section with strong straining ++++, the whole section had strong staining

[2] = system: MDA435-TetR-Luc cells; assay: Transfection efficiency of MDA435-TetR-Luc cells with Lipid-Based Particles (TetRLuc assay); type: cell-based; conditions: formulation employing the cationic lipid
Description: To determine the knockdown efficacy of Lipid-Based Particles in an in vitro assay, MDA435-TetR-Luc cells (The positive readout reporter cell line MDA435-TetR-Luc contained a stably integrated copy of the luciferase gene expressed from a CMV promoter containing the tetR operator site. In addition, gene coding for a destabilized TetR protein was expressed in this cell line.) were plated in 96 well plate at a density of 10K cells per well in 100 ul of DMEM (Dulbecco's Modified Eagles Medium, Invitrogen Corp.) containing 10% fetal bovine serum (Invitrogen Corp.). Appropriate dilutions of Lipid-Based Particles were made in DMEM+10% fetal bovine serum medium, 10 ul of the diluted material was transferred into each well in triplicate. Transfected cells were further incubated at 37° C. for a period of 72 hours. […] The graphs represent average of triplicate readings of the Lipid-Based Particles treated sample divided by the average of readings from 9 wells treated with doxycycline.
The ability of novel cationic lipids to transfect siRNA in vitro was evaluated in the TetRLuc assay. By utilizing a releasable PEG lipid as for examples in formulations “a” or “b”, the transfection efficiency of the unshielded or partially shielded particle may be determined.

With `C[C@H]1c2cccc(O)c2C(=O)C2=C(O)[C@]3(O)C(=O)C(C(N)=O)=C(O)[C@@H](N(C)C)[C@@H]3[C@@H](O)[C@@H]21` [Doxycycline] the “β-galactosidase IHC staining score, column 1” value ([1]; intraliver tumor, i.v. tail vein, column 1 of 6 (not further defined)) was “+++”, the “β-galactosidase IHC staining score, column 2” value ([1]; intraliver tumor, i.v. tail vein, column 2 of 6 (not further defined)) was “+++” and the “β-galactosidase IHC staining score, column 3” value ([1]; intraliver tumor, i.v. tail vein, column 3 of 6 (not further defined)) was “+++”. For the same compound, the “β-galactosidase IHC staining score, column 4” value ([1]; intraliver tumor, i.v. tail vein, column 4 of 6 (not further defined)) was “+++”, the “β-galactosidase IHC staining score, column 5” value ([1]; intraliver tumor, i.v. tail vein, column 5 of 6 (not further defined)) was “+++” and the “β-galactosidase IHC staining score, column 6” value ([1]; intraliver tumor, i.v. tail vein, column 6 of 6 (not further defined)) was “+++”.
With `CCCCC/C=C\C/C=C\CCCCCCCCOCC(CN1CCCC1)OCCCCCCCC/C=C\C/C=C\CCCCC` (stereo not drawn) [Example 1, 1-(2,3-bis((9Z,12Z)-octadeca-9,12-dienyloxy)propyl)pyrrolidine] the in vivo delivery ([1]; formulation employing the cationic lipid) was “efficient in vivo delivery” and the “in vitro transfection activity” value [2] was “provided in vitro transfection activity”.
In the case of `CCCCC/C=C\C/C=C\CCCCCCCCOCC(CN(CC)CC)OCCCCCCCC/C=C\C/C=C\CCCCC` (stereo not drawn) [Example 57, N,N-diethyl-2,3-bis((9Z,12Z)-octadeca-9,12-dienyloxy)propan-1-amine], the “in vitro transfection activity” value [2] is reported as “may diminish activity”.

— patent US20100104629A1, “CATIONIC LIPIDS AND USES THEREOF” (ABBOTT LABORATORIES, priority 2008, published 2010)
